Test results as given in patent US20040138198A1, “Vasectomy procedure and related kit” (priority 2001, published 2004).

Tests used:
sperm in vas = test: non-GLP study, in vivo effect on motility and viability of sperm in vas; conditions: injection, 0.2 mg/kg body weight; saline injected controls 35%
Excerpt: In another non-GLP study, the in vivo effect of diltiazem on motility and viability of sperm in vas was observed.

vasa deferentia = conditions: rat, in vivo
Method: A dose ranging non-GLP study was conducted in rats to determine the local toxic effect of diltiazem on vasa deferentia.

COc1ccc([C@@H]2Sc3ccccc3N(CCN(C)C)C(=O)[C@@H]2OC(C)=O)cc1 [diltiazem]
percentage of non-viable sperm (sperm in vas): 92%
changes in the histology of the vas (vasa deferentia; 0.2 mg/kg): did not cause any changes in the histology of the vas
effect on the vas (vasa deferentia; 2 mg/kg): no effect on the vas
mortality of rats (vasa deferentia; 50 mg/kg): no mortality
